Measurements taken from paper PMC11766267 (International Journal of Molecular Sciences, 2025).
Values joined by “and” are separate entries in the source; they are usually repeats but may differ in a detail not shown here. Equal entries are not always repeated. Where two headings read alike, the source gives them in different places.

Key:
[1] = system: HCT-116, MDA-MB-231, HeLa, and MCF-7; assay: MTT cytotoxicity assay, ranges stated over several cell lines; type: cell-based; conditions: Homo sapiens, range over the compounds named
Outline: (§1)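 Cytotoxicity was read by MTT reduction. The insoluble formazan formed was then dissolved in dimethyl sulfoxide.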

[2] = biological target: CDK2 (Homo sapiens, UniProt P24941); assay: In vitro protein kinase inhibition assay (ELISA kit), CDK2
[3] = system: HCT-116; assay: MTT cytotoxicity assay, HCT-116; type: cell-based; conditions: Homo sapiens, 24 h treatment, mean ± SD of triplicate
Outline: as §1

[4] = biological target: VEGFR-2 (Homo sapiens, UniProt P35968); assay: In vitro protein kinase inhibition assay (ELISA kit), VEGFR-2
Sequence of VEGFR-2 (P35968 20-1356): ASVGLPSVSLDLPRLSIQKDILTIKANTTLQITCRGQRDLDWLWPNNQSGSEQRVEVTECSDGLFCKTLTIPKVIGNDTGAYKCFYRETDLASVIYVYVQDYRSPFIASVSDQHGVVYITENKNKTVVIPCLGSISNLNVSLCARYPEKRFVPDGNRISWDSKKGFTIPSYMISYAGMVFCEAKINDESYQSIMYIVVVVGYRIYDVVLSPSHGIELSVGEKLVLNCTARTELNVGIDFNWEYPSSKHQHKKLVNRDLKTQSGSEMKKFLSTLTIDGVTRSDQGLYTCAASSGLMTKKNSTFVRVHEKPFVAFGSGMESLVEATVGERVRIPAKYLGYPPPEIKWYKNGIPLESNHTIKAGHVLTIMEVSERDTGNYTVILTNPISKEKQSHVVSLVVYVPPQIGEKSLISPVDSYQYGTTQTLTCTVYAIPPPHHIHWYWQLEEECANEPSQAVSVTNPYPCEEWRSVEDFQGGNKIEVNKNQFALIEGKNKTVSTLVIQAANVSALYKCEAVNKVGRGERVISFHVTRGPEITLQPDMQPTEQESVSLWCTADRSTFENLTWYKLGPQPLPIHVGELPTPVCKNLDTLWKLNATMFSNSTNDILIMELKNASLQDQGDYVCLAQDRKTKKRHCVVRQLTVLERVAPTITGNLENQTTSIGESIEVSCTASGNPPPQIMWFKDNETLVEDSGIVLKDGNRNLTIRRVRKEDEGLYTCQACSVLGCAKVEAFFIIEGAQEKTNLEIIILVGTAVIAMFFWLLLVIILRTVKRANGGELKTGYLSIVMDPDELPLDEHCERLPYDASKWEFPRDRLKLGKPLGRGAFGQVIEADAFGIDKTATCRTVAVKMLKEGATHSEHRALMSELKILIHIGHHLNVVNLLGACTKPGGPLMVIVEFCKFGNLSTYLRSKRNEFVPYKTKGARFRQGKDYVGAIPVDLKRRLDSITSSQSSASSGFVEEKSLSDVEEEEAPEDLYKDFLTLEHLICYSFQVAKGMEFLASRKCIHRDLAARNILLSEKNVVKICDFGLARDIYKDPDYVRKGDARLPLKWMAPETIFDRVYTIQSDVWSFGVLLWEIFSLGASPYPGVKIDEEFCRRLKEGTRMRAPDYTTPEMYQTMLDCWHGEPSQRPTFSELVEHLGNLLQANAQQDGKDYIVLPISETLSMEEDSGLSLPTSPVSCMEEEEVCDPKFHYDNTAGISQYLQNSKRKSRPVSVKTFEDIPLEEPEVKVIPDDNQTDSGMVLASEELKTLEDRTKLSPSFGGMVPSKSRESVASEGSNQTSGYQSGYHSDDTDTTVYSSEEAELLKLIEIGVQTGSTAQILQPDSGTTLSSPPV

[5] = system: MCF-7; assay: In vitro anti-estrogenic activity assay, MCF-7
[6] = system: MCF-7a; assay: In vitro anti-estrogenic activity assay, MCF-7a
[7] = system: MDA-MB-231; assay: MTT cytotoxicity assay, MDA-MB-231; type: cell-based; conditions: Homo sapiens, 24 h treatment, mean ± SD of triplicate
Outline: as §1

[8] = biological target: T1, aromatase (CYP19A, EC 1.14.14.14) (Homo sapiens, UniProt P11511); assay: biochemical
T1 construct: Microsomal samples were isolated from tissue using the Microsome Isolation Kit; tissue BioVision K983-100; host or cells: microsomes from an unnamed tissue
T1 sequence (P11511 1-503): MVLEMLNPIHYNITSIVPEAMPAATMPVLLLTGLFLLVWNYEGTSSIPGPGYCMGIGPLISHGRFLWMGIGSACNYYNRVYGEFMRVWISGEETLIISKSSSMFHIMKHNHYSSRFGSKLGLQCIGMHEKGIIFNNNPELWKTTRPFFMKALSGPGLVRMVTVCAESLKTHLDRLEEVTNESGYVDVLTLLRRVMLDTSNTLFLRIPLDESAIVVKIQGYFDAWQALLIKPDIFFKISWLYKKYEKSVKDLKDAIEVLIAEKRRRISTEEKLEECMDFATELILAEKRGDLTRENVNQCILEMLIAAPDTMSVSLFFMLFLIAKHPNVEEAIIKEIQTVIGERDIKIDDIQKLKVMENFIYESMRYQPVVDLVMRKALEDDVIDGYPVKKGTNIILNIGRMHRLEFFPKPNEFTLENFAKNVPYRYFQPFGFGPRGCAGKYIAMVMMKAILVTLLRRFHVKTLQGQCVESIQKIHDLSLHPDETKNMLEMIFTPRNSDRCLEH
Procedure: In vitro aromatase assay was performed using the BioVision Aromatase Activity Assay Kit (Catalog # K983-100; BioVision, Milpitas, CA, USA). Microsomal samples were isolated from tissue using the Microsome Isolation Kit (Cat. #K249; BioVision, Milpitas, CA, USA). A standard curve was established by diluting the Fluorescence Standard provided in the kit to create a 0.5 pmole/µL solution, followed by setting up a series of standards in a white 96-well plate, adjusting the total volume to 100 µL with aromatase assay buffer. For each reaction well, a 2X concentrated mix was prepared by adding 2–48 µL of the microsomal sample and 2 µL of the NADPH generating system, bringing the final volume to 50 µL with aromatase assay buffer. Background controls (no enzyme) and positive controls (with recombinant aromatase) were included. […] After a 10 min incubation at 37 °C, 30 µL of the substrate/NADP+ mixture was added to each well, and fluorescence was measured immediately in kinetic mode for 60 min at 37 °C. Finally, the change in fluorescence was calculated to determine the specific activity of aromatase using the formula provided in the kit protocol.

[9] = system: MCF-7; assay: MTT cytotoxicity assay, MCF-7; type: cell-based, human; conditions: Homo sapiens, MCF7, 24 h, 24 h treatment, mean ± SD of triplicate
Outline: as §1

[10] = MTT cytotoxicity assay, normal cell line WI-38; type: cell-based, human; conditions: human, WI-38 cells (normal human lung fibroblasts), normal (non-cancer) cell line, 24 h treatment
Outline: as §1

[11] = biological target: EGFR (Homo sapiens, UniProt P00533); assay: In vitro protein kinase inhibition assay (ELISA kit), EGFR
Sequence of EGFR (P00533 25-1210): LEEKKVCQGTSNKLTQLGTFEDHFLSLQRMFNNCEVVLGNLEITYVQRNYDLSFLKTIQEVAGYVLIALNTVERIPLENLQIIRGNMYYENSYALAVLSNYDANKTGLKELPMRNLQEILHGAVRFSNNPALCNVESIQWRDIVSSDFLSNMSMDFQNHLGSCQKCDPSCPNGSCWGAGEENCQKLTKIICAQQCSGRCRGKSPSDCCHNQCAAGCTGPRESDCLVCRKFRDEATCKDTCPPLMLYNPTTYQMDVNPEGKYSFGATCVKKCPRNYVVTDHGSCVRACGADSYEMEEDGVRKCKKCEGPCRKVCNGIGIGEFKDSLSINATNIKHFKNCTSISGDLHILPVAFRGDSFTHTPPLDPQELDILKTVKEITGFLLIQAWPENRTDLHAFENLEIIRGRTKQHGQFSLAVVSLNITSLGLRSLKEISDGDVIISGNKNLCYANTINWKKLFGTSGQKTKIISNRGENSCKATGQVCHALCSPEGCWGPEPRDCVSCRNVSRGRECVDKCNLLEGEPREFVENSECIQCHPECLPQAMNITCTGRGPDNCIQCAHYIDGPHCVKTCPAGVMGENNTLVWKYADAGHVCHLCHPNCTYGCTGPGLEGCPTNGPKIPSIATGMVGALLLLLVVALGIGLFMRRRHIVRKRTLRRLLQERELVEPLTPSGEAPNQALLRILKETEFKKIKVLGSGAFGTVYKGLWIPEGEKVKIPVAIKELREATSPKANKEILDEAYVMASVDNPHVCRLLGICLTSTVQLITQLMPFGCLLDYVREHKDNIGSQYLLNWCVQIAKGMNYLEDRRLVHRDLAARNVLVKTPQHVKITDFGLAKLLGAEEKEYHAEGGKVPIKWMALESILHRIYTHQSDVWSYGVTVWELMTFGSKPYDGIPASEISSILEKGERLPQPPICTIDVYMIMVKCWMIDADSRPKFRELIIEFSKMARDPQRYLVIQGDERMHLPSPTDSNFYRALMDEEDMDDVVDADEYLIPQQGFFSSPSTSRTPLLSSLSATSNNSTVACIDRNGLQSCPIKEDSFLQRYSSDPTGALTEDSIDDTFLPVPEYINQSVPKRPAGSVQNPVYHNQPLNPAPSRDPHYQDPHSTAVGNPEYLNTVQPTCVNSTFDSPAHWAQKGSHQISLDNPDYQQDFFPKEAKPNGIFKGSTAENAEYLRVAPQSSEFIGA

[12] = biological target: HER2 (Homo sapiens, UniProt P04626); assay: In vitro protein kinase inhibition assay (ELISA kit), HER2
Sequence of HER2 (P04626 23-1255): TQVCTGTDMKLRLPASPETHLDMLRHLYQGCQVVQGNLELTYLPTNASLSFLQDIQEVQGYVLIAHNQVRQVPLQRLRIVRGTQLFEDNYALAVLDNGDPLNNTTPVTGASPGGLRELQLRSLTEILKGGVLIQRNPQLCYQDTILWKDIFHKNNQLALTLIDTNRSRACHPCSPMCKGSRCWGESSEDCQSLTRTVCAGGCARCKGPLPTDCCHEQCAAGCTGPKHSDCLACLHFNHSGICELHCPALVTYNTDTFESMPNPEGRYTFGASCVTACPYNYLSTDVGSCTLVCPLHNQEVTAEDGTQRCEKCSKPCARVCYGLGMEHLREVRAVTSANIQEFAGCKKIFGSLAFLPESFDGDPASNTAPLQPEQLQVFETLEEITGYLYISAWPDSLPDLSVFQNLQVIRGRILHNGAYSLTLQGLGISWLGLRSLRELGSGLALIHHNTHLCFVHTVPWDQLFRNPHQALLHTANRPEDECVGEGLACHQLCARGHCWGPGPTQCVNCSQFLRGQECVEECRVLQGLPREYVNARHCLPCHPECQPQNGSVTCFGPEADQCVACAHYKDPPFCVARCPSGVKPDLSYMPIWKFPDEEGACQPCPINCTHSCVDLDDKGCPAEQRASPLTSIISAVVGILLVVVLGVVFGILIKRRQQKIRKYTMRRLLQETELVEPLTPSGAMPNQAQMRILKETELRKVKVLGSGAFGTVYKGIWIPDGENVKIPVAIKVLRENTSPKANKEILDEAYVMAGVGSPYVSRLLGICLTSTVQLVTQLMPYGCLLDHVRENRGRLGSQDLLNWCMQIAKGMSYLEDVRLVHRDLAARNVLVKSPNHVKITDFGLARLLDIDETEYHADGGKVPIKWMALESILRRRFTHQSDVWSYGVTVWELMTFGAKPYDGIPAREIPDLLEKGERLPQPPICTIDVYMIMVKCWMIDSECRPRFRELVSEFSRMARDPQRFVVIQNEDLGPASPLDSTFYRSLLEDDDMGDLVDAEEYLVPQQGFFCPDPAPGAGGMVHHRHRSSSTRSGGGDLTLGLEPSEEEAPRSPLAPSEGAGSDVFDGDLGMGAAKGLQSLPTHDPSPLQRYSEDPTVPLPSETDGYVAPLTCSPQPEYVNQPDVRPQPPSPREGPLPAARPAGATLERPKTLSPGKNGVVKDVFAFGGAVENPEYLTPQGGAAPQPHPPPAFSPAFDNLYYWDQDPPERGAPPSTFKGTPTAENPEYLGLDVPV

[13] = system: HeLa; assay: MTT cytotoxicity assay, HeLa; type: cell-based; conditions: Homo sapiens, 24 h treatment, mean ± SD of triplicate
Outline: as §1

[14] = cell count relative to the control (17β-E2)

COc1cccc(C(=O)/C=C/c2ccc(OCc3ccccc3)cc2)c1 [Compound 4q, (E)-3-(4-(Benzyloxy)phenyl)-1-(3-methoxyphenyl)prop-2-en-1-one]
IC50 ([1]; HCT-116 and HeLa, read-out: IC50 values, range against HCT-116 and HeLa): 6.59 to 22.6 µM | IC50 ([1]; MDA-MB-231 and MCF-7, read-out: IC50 values, range against MDA-MB-231 and MCF-7): 2.08 to 13.6 µM | IC50 [2]: ~0.17 µM | Inhibition (%) CDK2 ([2]; 0.01 µM, individual Data 1-3): 24.8% and 25.2% | Inhibition (%) CDK2 ([2]; 0.1 µM, individual Data 1-3): 41.7% and 42.2% | Inhibition (%) CDK2 ([2]; 1 µM, individual Data 1-3): 70.9% and 71.2% | Inhibition (%) CDK2 ([2]; 10 µM, individual Data 1-3): 87.8% and 88.3% | Inhibition (%) CDK2 ([2]; 100 µM, individual Data 1-3): 96% and 96.6% | inhibition at 0.1 µM ([2]; read-out: Inhibition % at 0.1 µM CDK2, 0.1 µM, the data between the highest and lowest values): 41.9% | inhibition at 0.01 µM ([2]; read-out: Inhibition (%) CDK2, 0.01 µM, individual Data 1-3): 25.1% | inhibition at 0.1 µM ([2]; read-out: Inhibition (%) CDK2, 0.1 µM, individual Data 1-3): 41.9% | inhibition at 1 µM ([2]; read-out: Inhibition (%) CDK2, 1 µM, individual Data 1-3): 71.1% | inhibition at 10 µM ([2]; read-out: Inhibition (%) CDK2, 10 µM, individual Data 1-3): 88.1% | inhibition at 100 µM ([2]; read-out: Inhibition (%) CDK2, 100 µM, individual Data 1-3): 96.3% | IC50 [3]: 17.1 ± 1.3 µM | IC50 [4]: 0.287 ± 0.01 µM | Inhibition (%) VEGFR2 ([4]; 0.01 µM, individual Data 1-3): 16.9% | Inhibition (%) VEGFR2 ([4]; 0.1 µM, individual Data 1-3): 38.9% and 39.1% | Inhibition (%) VEGFR2 ([4]; 1 µM, individual Data 1-3): 66.7% and 66.4% | Inhibition (%) VEGFR2 ([4]; 10 µM, individual Data 1-3): 87.1% and 87.6% | Inhibition (%) VEGFR2 ([4]; 100 µM, individual Data 1-3): 95.4% and 95.9% | inhibition at 0.01 µM ([4]; read-out: Inhibition (%) VEGFR2, 0.01 µM, individual Data 1-3): 17% | inhibition at 0.1 µM ([4]; read-out: Inhibition (%) VEGFR2, 0.1 µM, individual Data 1-3): 39% | inhibition at 1 µM ([4]; read-out: Inhibition (%) VEGFR2, 1 µM, individual Data 1-3): 66.8% | inhibition at 10 µM ([4]; read-out: Inhibition (%) VEGFR2, 10 µM, individual Data 1-3): 87.3% | inhibition at 100 µM ([4]; read-out: Inhibition (%) VEGFR2, 100 µM, individual Data 1-3): 95.7% | Cell Proliferation MCF-7 % [5, 14]: 37% | Cell Proliferation MCF-7 Cell Count ([5]; mean ± SD of triplicate): 6874 ± 245 | Reduction of growth/cell count (inhibition) in MCF-7 ([5]; relative to control): 63% | Cell Proliferation MCF-7a % [6, 14]: 99% | Cell Proliferation MCF-7a Cell Count ([6]; mean ± SD of triplicate): 20,630 ± 595 | Inhibition in MCF-7a ([6]; relative to control): 1% | IC50 [7]: 13.6 ± 1.1 µM | Inhibition (%) Aromatase ([8]; 0.01 µM, individual Data 1-3): 6.6% and 8.9% | Inhibition (%) Aromatase ([8]; 0.1 µM, individual Data 1-3): 17.9% and 20.7% | Inhibition (%) Aromatase ([8]; 1 µM, individual Data 1-3): 54% and 53.8% | Inhibition (%) Aromatase ([8]; 10 µM, individual Data 1-3): 81.5% and 83.9% | Inhibition (%) Aromatase ([8]; 100 µM, individual Data 1-3): 91.6% and 93.8% | IC50 ([8]; mean ± SD of triplicate, approximate values, read-out: Aromatase Inhibition IC50): 0.901 µM and 0.801 µM | inhibition at 0.01 µM ([8]; read-out: Inhibition (%) Aromatase, 0.01 µM, individual Data 1-3): 7.8% | inhibition at 0.1 µM ([8]; read-out: Inhibition (%) Aromatase, 0.1 µM, individual Data 1-3): 19% | inhibition at 1 µM ([8]; read-out: Inhibition (%) Aromatase, 1 µM, individual Data 1-3): 55.9% | inhibition at 10 µM ([8]; read-out: Inhibition (%) Aromatase, 10 µM, individual Data 1-3): 82% | inhibition at 100 µM ([8]; read-out: Inhibition (%) Aromatase, 100 µM, individual Data 1-3): 92% | IC50 [9]: 11.6 ± 0.9 µM | IC50 at 24 h [10]: > 100 µM | IC50 [11]: 0.151 ± 0.005 µM | Inhibition (%) EGFR ([11]; 0.01 µM, individual Data 1-3): 22.9% and 24.2% | Inhibition (%) EGFR ([11]; 0.1 µM, individual Data 1-3): 45.2% and 47.5% | Inhibition (%) EGFR ([11]; 1 µM, individual Data 1-3): 71.9% and 70.2% | Inhibition (%) EGFR ([11]; 10 µM, individual Data 1-3): 86.9% and 90% | Inhibition (%) EGFR ([11]; 100 µM, individual Data 1-3): 95.6% and 97.9% | inhibition at 0.01 µM ([11]; read-out: Inhibition (%) EGFR, 0.01 µM, individual Data 1-3): 23.4% | inhibition at 0.1 µM ([11]; read-out: Inhibition (%) EGFR, 0.1 µM, individual Data 1-3): 46.8% | inhibition at 1 µM ([11]; read-out: Inhibition (%) EGFR, 1 µM, individual Data 1-3): 72% | inhibition at 10 µM ([11]; read-out: Inhibition (%) EGFR, 10 µM, individual Data 1-3): 88.4% | inhibition at 100 µM ([11]; read-out: Inhibition (%) EGFR, 100 µM, individual Data 1-3): 96.3% | IC50 [12]: ~0.144 µM | Inhibition (%) Her2 ([12]; 0.01 µM, individual Data 1-3): 25% and 25.9% | Inhibition (%) Her2 ([12]; 0.1 µM, individual Data 1-3): 47.70% and 48.76% | Inhibition (%) Her2 ([12]; 1 µM, individual Data 1-3): 68.30% and 69.5% | Inhibition (%) Her2 ([12]; 10 µM, individual Data 1-3): 86.89% and 87.78% | Inhibition (%) Her2 ([12]; 100 µM, individual Data 1-3): 95.7% and 96.9% | inhibition at 0.1 µM ([12]; read-out: Inhibition % at 0.1 µM HER2, 0.1 µM, the data between the highest and lowest values): 48% | inhibition at 0.01 µM ([12]; read-out: Inhibition (%) Her2, 0.01 µM, individual Data 1-3): 25.6% | inhibition at 0.1 µM ([12]; read-out: Inhibition (%) Her2, 0.1 µM, individual Data 1-3): 48% | inhibition at 1 µM ([12]; read-out: Inhibition (%) Her2, 1 µM, individual Data 1-3): 68.9% | inhibition at 10 µM ([12]; read-out: Inhibition (%) Her2, 10 µM, individual Data 1-3): 87.3% | inhibition at 100 µM ([12]; read-out: Inhibition (%) Her2, 100 µM, individual Data 1-3): 96.2% | IC50 [13]: 22.6 ± 1.7 µM
